Measurements: patent publication US9216173B2, “2-Pyridyl carboxamide-containing spleen tyrosine kinase (SYK) inhibitors” (Merck Sharp & Dohme Corp., priority 2011, dated 2015)

Biological target: T1, recombinant human GST-SYK (Homo sapiens, UniProt P43405)
T1 construct: purchased Carna Biosciences 08-176
Assay: Homogeneous Time-Resolved Fluorescence (HTRF) assay for the recombinant human Syk enzyme
Assay type: biochemical
Details: GST-hSYK 5 pM, ATP 25 μM, 10-dose titration 10 μM to 0.508 nM; read-out: IC50
Summary of the method: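 GST-hSYK fusion phosphorylates a peptide for 45 min at room temperature. Quenched with EDTA buffer containing 2 nM Eu-anti-phosphotyrosine antibody and 70 nM SA-APC. HTRF signal read after 30 min.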

Row | Structure (SMILES) | IC50 [nM]
1 | Cc1cc(C)nc(Nc2cc(N)cnc2C(N)=O)c1 [Example 9, 5-amino-3-[(4,6-dimethylpyridin-2-yl)amino]pyridine-2-carboxamide] | 2900
2 | Cc1cc(C)nc(Nc2cc(N[C@H]3CC[C@@H]3N)cnc2C(N)=O)c1 (relative stereo) [Example 1.116, rel-5-{[(1S,2S)-2-aminocyclobutyl]amino}-3-[(4,6-dimethylpyridin-2-yl)amino]pyridine-2-carboxamide] | 55
3 | Cc1cc(C)nc(Nc2cc(N[C@@H]3C[C@H]3N)cnc2C(N)=O)c1 (relative stereo) [Example 2.13, rel-5-{[(1R,2R)-2-aminocyclopropyl]amino}-3-[(4,6-dimethylpyridin-2-yl)amino]pyridine-2-carboxamide] | 770

Same assay, conditions: GST-hSYK 5 pM, ATP 25 μM, 10-dose titration 10 μM to 0.508 nM; read-out: rhSYK Activity (IC50 rating)

Row | Structure (SMILES) | IC50 [nM]
4 | NC(=O)c1ncc(N[C@@H]2CCCC[C@@H]2N)cc1Nc1ccn(-c2ccc(F)cc2)n1 [Example 1.65, 5-{[(1R,2S)-2-aminocyclohexyl]amino}-3-{[1-(4-fluorophenyl)-1H-pyrazol-3-yl]amino}pyridine-2-carboxamide] | < 10
5 | Cc1cc(C)nc(Nc2cc(NC(CN)c3ccccc3)cnc2C(N)=O)c1 (stereo not shown) [Example 1.23, 5-[(2-amino-1-phenylethyl)amino]-3-[(4,6-dimethylpyridin-2-yl)amino]pyridine-2-carboxamide] | 10 to 100
6 | Cc1cccc(Nc2cc(NCCN)cnc2C(N)=O)n1 [Example 1.4, 5-[(2-aminoethyl)amino]-3-[(6-methylpyridin-2-yl)amino]pyridine-2-carboxamide] | 10 to 100
7 | Cc1nc(Nc2cc(N[C@@H]3CCCC[C@@H]3N)cnc2C(N)=O)ccc1-c1cccc(C(=O)O)c1 [Example 3.6, 3-{6-[(5-{[(1R,2S)-2-aminocyclohexyl]amino}-2-carbamoylpyridin-3-yl)amino]-2-methylpyridin-3-yl}benzoic acid] | < 10
8 | Cc1cc(C)nc(Nc2cc(N)cnc2C(N)=O)c1 [Example 9, 5-amino-3-[(4,6-dimethylpyridin-2-yl)amino]pyridine-2-carboxamide] | 1000 to 10000
9 | Cc1nc(Nc2cc(N[C@@H]3CCCC[C@@H]3N)cnc2C(N)=O)ccc1-n1nccn1 [Example 1.67, 5-{[(1R,2S)-2-aminocyclohexyl]amino}-3-{[6-methyl-5-(2H-1,2,3-triazol-2-yl)pyridin-2-yl]amino}pyridine-2-carboxamide] | < 10
10 | Cc1cc(C)nc(Nc2cc(NCC3(N)CCOCC3)cnc2C(N)=O)c1 [Example 1.34, 5-{[(4-aminotetrahydro-2H-pyran-4-yl)methyl]amino}-3-[(4,6-dimethylpyridin-2-yl)amino]pyridine-2-carboxamide] | 10 to 100
11 | CCn1cnc(Nc2cc(N[C@@H]3CCCC[C@@H]3N)cnc2C(N)=O)n1 [Example 1.56, 5-{[(1R,2S)-2-aminocyclohexyl]amino}-3-[(1-ethyl-1H-1,2,4-triazol-3-yl)amino]pyridine-2-carboxamide] | 100 to 1000
12 | Cc1cc(Nc2cc(N[C@@H]3CCCC[C@@H]3N)cnc2C(N)=O)nc(-c2cnc(C(C)(C)O)s2)c1 [Example 1.114, 5-{[(1R,2S)-2-aminocyclohexyl]amino}-3-({6-[2-(1-hydroxy-1-methylethyl)-1,3-thiazol-5-yl]-4-methylpyridin-2-yl}amino)pyridine-2-carboxamide] | < 10
13 | COc1ncc(-c2ccc(Nc3cc(N[C@@H]4CCCC[C@@H]4N)cnc3C(N)=O)nc2C)cn1 [Example 3.24, 5-{[(1R,2S)-2-aminocyclohexyl]amino}-3-{[5-(2-methoxypyrimidin-5-yl)-6-methylpyridin-2-yl]amino}pyridine-2-carboxamide] | < 10
14 | Cc1cc(Nc2cc(N[C@@H]3CCCC[C@@H]3N)cnc2C(N)=O)nc(-c2cnn3c2CCC3)c1 [Example 1.115, 5-{[(1R,2S)-2-aminocyclohexyl]amino}-3-{[6-(5,6-dihydro-4H-pyrrolo[1,2-b]pyrazol-3-yl)-4-methylpyridin-2-yl]amino}pyridine-2-carboxamide] | < 10
15 | Cc1cc(C)nc(Nc2cc(N[C@@H](CC(C)C)C(N)=O)cnc2C(N)=O)c1 [Example 1.40, N^2-{6-carbamoyl-5-[(4,6-dimethylpyridin-2-yl)amino]pyridin-3-yl}leucinamide] | < 10
16 | Cc1cc(C)nc(Nc2cc(N[C@H]3CCC[C@H]3N)cnc2C(N)=O)c1 (single isomer, unassigned) [Example 1.25] | 10 to 100
17 | Cc1cc(-c2cnn(C)c2)cc(Nc2cc(N[C@@H]3CCCC[C@@H]3N)cnc2C(N)=O)n1 [Example 4.3, 5-{[(1R,2S)-2-aminocyclohexyl]amino}-3-{[6-methyl-4-(1-methyl-1H-pyrazol-4-yl)pyridin-2-yl]amino}pyridine-2-carboxamide] | < 10
18 | Cc1cc(Nc2cc(N[C@@H]3CCCC[C@@H]3N)cnc2C(N)=O)nc(-c2cnn3c2CCCC3)c1 [Example 1.113, 5-{[(1R,2S)-2-aminocyclohexyl]amino}-3-{[4-methyl-6-(4,5,6,7-tetrahydropyrazolo[1,5-a]pyridin-3-yl)pyridin-2-yl]amino}pyridine-2-carboxamide] | < 10
19 | Cc1cc(-n2ccnn2)cc(Nc2cc(N[C@@H]3CCCC[C@@H]3N)cnc2C(N)=O)n1 [Example 1.75, 5-{[(1R,2S)-2-aminocyclohexyl]amino}-3-{[6-methyl-4-(1H-1,2,3-triazol-1-yl)pyridin-2-yl]amino}pyridine-2-carboxamide] | < 10
20 | NC(=O)c1ncc(N[C@@H]2CCCC[C@@H]2N)cc1Nc1ccnc(C2CC2)n1 [Example 1.129, 5-{[(1R,2S)-2-aminocyclohexyl]amino}-3-[(2-cyclopropylpyrimidin-4-yl)amino]pyridine-2-carboxamide] | < 10

Row | Structure (SMILES) | IC50 [nM]
21 | NC(=O)c1ncc(N[C@@H]2CCCC[C@@H]2N)cc1Nc1cccc(-c2ccncc2)n1 [Example 1.27, 5-{[(1R,2S)-2-aminocyclohexyl]amino}-3-(2,4′-bipyridin-6-ylamino)pyridine-2-carboxamide] | < 10
22 | Cc1nc(Nc2cc(N[C@@H]3CCCC[C@@H]3N)cnc2C(N)=O)ccc1-c1ccc2c(=O)nc[nH]c2c1 [Example 3.21, 5-{[(1R,2S)-2-aminocyclohexyl]amino}-3-{[6-methyl-5-(4-oxo-1,4-dihydroquinazolin-7-yl)pyridin-2-yl]amino}pyridine-2-carboxamide] | < 10
23 | Cc1nc(Nc2cc(NC[C@H](C)N)cnc2C(N)=O)ccc1-c1cn(C)cn1 [Example 1.10, 5-{[(2S)-2-aminopropyl]amino}-3-{[6-methyl-5-(1-methyl-1H-imidazol-4-yl)pyridin-2-yl]amino}pyridine-2-carboxamide] | < 10
24 | Cc1cc(C(=O)O)cc(Nc2cc(N[C@@H]3CCCC[C@@H]3N)cnc2C(N)=O)n1 [Example 12, 2-[(5-{[(1R,2S)-2-aminocyclohexyl]amino}-2-carbamoylpyridin-3-yl)amino]-6-methylpyridine-4-carboxylic acid] | 10 to 100
25 | Cc1cc(C)nc(Nc2cc(N[C@H]3[C@@H](N)CCCC3(F)F)cnc2C(N)=O)c1 [Example 1.47, 5-{[(1S,6S)-6-amino-2,2-difluorocyclohexyl]amino}-3-[(4,6-dimethylpyridin-2-yl)amino]pyridine-2-carboxamide] | < 10
26 | Cc1cc(C)nc(Nc2cc(N[C@H]3CC[C@@H]3N)cnc2C(N)=O)c1 (relative stereo) [Example 1.116, rel-5-{[(1S,2S)-2-aminocyclobutyl]amino}-3-[(4,6-dimethylpyridin-2-yl)amino]pyridine-2-carboxamide] | 10 to 100
27 | Cc1cc(C)nc(Nc2cc(NCCCN)cnc2C(N)=O)c1 [Example 14, 5-[(3-aminopropyl)amino]-3-[(4,6-dimethylpyridin-2-yl)amino]pyridine-2-carboxamide] | 10 to 100
28 | Cc1cc(-c2ccccc2)cc(Nc2cc(N[C@@H]3CCCC[C@@H]3N)cnc2C(N)=O)n1 [Example 4.1, 5-{[(1R,2S)-2-aminocyclohexyl]amino}-3-[(6-methyl-4-phenylpyridin-2-yl)amino]pyridine-2-carboxamide] | < 10
29 | Cc1cc(N2CCOCC2)cc(Nc2cc(N[C@@H]3CCCC[C@@H]3N)cnc2C(N)=O)n1 [Example 1.77, 5-{[(1R,2S)-2-aminocyclohexyl]amino}-3-[(6-methyl-4-morpholin-4-ylpyridin-2-yl)amino]pyridine-2-carboxamide] | < 10
30 | COc1ccc(-c2ccc(Nc3cc(N[C@@H]4CCCC[C@@H]4N)cnc3C(N)=O)nc2C)cc1OC [Example 3.4, 5-{[(1R,2S)-2-aminocyclohexyl]amino}-3-{[5-(3,4-dimethoxyphenyl)-6-methylpyridin-2-yl]amino}pyridine-2-carboxamide] | < 10
31 | Cc1cc(C)nc(Nc2cc(N[C@@H]3C[C@H]3N)cnc2C(N)=O)c1 (relative stereo) [Example 2.13, rel-5-{[(1R,2R)-2-aminocyclopropyl]amino}-3-[(4,6-dimethylpyridin-2-yl)amino]pyridine-2-carboxamide] | 100 to 1000
32 | CCNC(=O)Nc1cnc(C(N)=O)c(Nc2cc(C)cc(C)n2)c1 [Example 15, 3-[(4,6-dimethylpyridin-2-yl)amino]-5-[(ethylcarbamoyl)amino]pyridine-2-carboxamide] | 100 to 1000
33 | CC(C)(O)COCc1cccc(Nc2cc(N[C@@H]3CCCC[C@@H]3N)cnc2C(N)=O)n1 [Example 1.120, 5-{[(1R,2S)-2-aminocyclohexyl]amino}-3-({6-[(2-hydroxy-2-methylpropoxy)methyl]pyridin-2-yl}amino)pyridine-2-carboxamide] | < 10
34 | Cc1cccc(-c2ccc(Nc3cc(N[C@@H]4CCCC[C@@H]4N)cnc3C(N)=O)nc2C)c1O [Example 3.28, 5-{[(1R,2S)-2-aminocyclohexyl]amino}-3-{[5-(2-hydroxy-3-methylphenyl)-6-methylpyridin-2-yl]amino}pyridine-2-carboxamide] | 10 to 100
35 | Cc1cc(C)nc(Nc2cc(NCC(N)CO)cnc2C(N)=O)c1 (stereo not shown) [Example 2.14, 5-[(2-amino-3-hydroxypropyl)amino]-3-[(4,6-dimethylpyridin-2-yl)amino]pyridine-2-carboxamide] | 10 to 100
36 | NC(=O)c1ncc(N[C@@H]2CCCC[C@@H]2N)cc1Nc1cccc(C2CC2)n1 [Example 1.53, 5-{[(1R,2S)-2-aminocyclohexyl]amino}-3-[(6-cyclopropylpyridin-2-yl)amino]pyridine-2-carboxamide] | < 10
37 | Cc1cc(Nc2cc(N[C@@H]3CCCC[C@@H]3N)cnc2C(N)=O)nc(-c2ccnn2C)c1 [Example 1.112, 5-{[(1R,2S)-2-aminocyclohexyl]amino}-3-{[4-methyl-6-(1-methyl-1H-pyrazol-5-yl)pyridin-2-yl]amino}pyridine-2-carboxamide] | < 10
